Assay [1] has as its target T1, human LXRβ ligand binding domain (Homo sapiens, UniProt P55055).
T1 construct: made in house; host or cells: E. coli BL21(DE3), vector pRSETa
T1 sequence (P55055 184-460 limits assumed): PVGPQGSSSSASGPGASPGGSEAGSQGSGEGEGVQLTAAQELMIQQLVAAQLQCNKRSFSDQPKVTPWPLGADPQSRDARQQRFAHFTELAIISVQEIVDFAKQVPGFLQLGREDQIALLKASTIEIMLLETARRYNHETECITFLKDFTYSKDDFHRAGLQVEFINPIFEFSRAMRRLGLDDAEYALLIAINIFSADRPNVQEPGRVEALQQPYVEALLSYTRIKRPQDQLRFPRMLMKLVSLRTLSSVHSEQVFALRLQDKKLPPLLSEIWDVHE
T1 sequence (Q15788 676-700 partner limits assumed): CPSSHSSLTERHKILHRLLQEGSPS
In words: Ligand Sensing Assay (LiSA) for LXRβ agonist activity (SRC1 peptide recruitment). It counts as biochemical. Particulars: 1 μM; over a background reading of 10000 fluorescence units. An excerpt: (§1) Test Method 1: Ligand Sensing Assay (LiSA) for LXRβ Agonist Activity
(§2) This assay measures the recruitment of a peptide derived from the coactivator protein, SRC1, to the agonist-bound LXR[…]. Peptides derived from other nuclear receptor cofactors may be similarly prepared and assayed.
To generate the human LXRβ ligand binding domain suitable for LiSA, a modified polyhistidine tag (MKKGHHHHHHG) (SEQ ID No. 1) was fused in frame to the human LXRβ ligand binding domain (amino acids 185–461 of Genbank accession number U07132) and subcloned into the expression vector pRSETa (Invitrogen) under the control of an IPTG inducible T7 promoter. The human LXRβ ligand binding domain was expressed in E. coli strain BL21(DE3). Ten-liter fermentation batches were grown in Rich PO4 media with 0.1 mg/mL Ampicillin at 25° C. for 12 hours, cooled to 9° C. and held at that temperature for 36 hours to a density of OD600=14. […]
Typically 25–50 g of cell paste is resuspended in 250–500 mL TBS, pH 8.0 (25 mM Tris, 150 mM NaCl). […] After washing to baseline absorbance with equilibration buffer, the column is washed with approximately one column volume of TBS pH […] containing 95 mM imidazole. […] After washing to baseline absorbance with the dilution buffer the protein is eluted with a gradient from 50–500 mM NaCl. […]

Assay [2] addresses T2, LXRα ligand binding domain (Homo sapiens, UniProt Q13133).
T2 construct: His tag; made in house; host or cells: E. coli BL21(DE3) by analogy with Test Method 1 (inferred)
T2 sequence (Q13133 183-447): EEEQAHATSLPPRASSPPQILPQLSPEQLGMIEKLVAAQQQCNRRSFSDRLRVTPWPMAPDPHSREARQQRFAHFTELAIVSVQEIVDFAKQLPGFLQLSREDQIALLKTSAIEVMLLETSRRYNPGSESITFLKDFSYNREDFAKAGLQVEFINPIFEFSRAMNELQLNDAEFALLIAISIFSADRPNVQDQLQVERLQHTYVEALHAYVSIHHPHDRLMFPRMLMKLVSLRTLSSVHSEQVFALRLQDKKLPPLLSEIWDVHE
T2 sequence (Q15788 676-700 partner): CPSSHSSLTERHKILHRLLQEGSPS
In words: Ligand Sensing Assay for LXRα agonist activity. The conditions noted are these: 1 μM; over a background reading of 10000 fluorescence units. In kind it is biochemical. How it is done: as §1, §2
The biotinylated protein was incubated for 20–25 minutes at a concentration of 5 nM in assay buffer (50 mM NaF, 50 mM MOPS-pH 7.5, 0.1 mg/ml FAF-BSA, 0.05 mM CHAPS, 10 mM DTT) with equimolar amounts of streptavidin-AlloPhycoCyanin (APC, Molecular Probes). […]
49 uL of the protein/peptide mixture was added to each well of an assay plate containing 1 ul of test compound serial diluted in 100% DMSO. […] The plates were incubated at room temp 2-hours and then counted on a Wallac Victor V fluorescent plate reader. […]
The assay for LXRα was run according to the procedures of Test Method 1, above using his-tagged LXRα ligand binding domain (amino acids 183–447 of Genbank accession number U22662, with the 14th amino acid corrected to A from R). In this assay 1 μM 24(S),25-epoxycholesterol gave a reading of 20000 fluorescence units over a background reading of 10000 fluorescence units.

As for `C[C@H](CC[C@@H]1OC1(C)C)[C@H]1CC[C@H]2[C@@H]3CC=C4C[C@@H](O)CC[C@]4(C)[C@H]3CC[C@]12C` [24(S),25-epoxycholesterol], the reading in assay [1] and in assay [2] was 20000 fluorescence units throughout.

Source of the values: patent US7247748B2, “Amide compounds and methods of using the same” (SmithKline Corporation, priority 2002, dated 2007).
